Experimental data reported in patent EP0576766A1, “Propanolamine derivatives, their preparation and use” (NOVO NORDISK A/S, priority 1992, dated 1994).
Structures can show the parent of a compound that is named as a salt.

Test system: voltage operated calcium channels (VOC)
Experiment: Inhibition of depolarization-stimulated 45Ca uptake into brain synaptosomes
Type: biochemical
Conditions: inhibition of stimulated uptake of ⁴⁵Ca in depolarized (145 mM KCl) rat cerebral cortex synaptosomes (P₂ fraction), corrected for basal uptake; 15 s incubation; estimated from dose response curves
Description: The pharmacological properties of the compounds of the invention can be illustrated by determining their capability to inhibit calcium uptake into brain synaptosomes.
Depolarization of neuronal membranes leads to an opening of socalled "voltage operated calcium channels" (VOC) in the membranes which allows a massive influx of calcium from the extracellular space. A crude synaptosomal preparation (socalled P₂ fraction) contains small vesicles surrounded by neuronal membrane and it is possible in such a preparation to study a depolarization-induced opening of VOC.
A male Wistar rat is decapitated and the cerebral cortex removed and homogenized in 10 ml. of ice-cold 0.32 M sucrose using a glass homogenizer with a teflon pestle. All subsequent steps for isolation of synaptosomes are done at 0-4°C. The homogenate is centrifuged at 1000 x g for 10 min and the resulting supernatant is re-centrifuged at 18000 x g for 20 min. This pellet (P₂) is resuspended in 0.32 M sucrose (5 ml per g of original tissue) with a teflon pestle.
The tubes are pre-incubated for 30 min on ice and then for 6 min at 37°C in a water bath.
The incubation is continued for 15 s.
The amount of radioactivity on the filter disc is determined by liquid scintillation spectrometry.
Test substances are dissolved in 10 ml of 48% ethanol at a concentration of 0.44 mg/ml. Dilution are made in 48% ethanol to give final concentrations of 0.1, 0.3, 1, 3 and 10 µg/ml. Experiments are performed in triplicate. Controls for depolarized and nondepolarized samples are included in the assay and test substances are only tested in depolarized samples.
The test value will be given as IC₅₀ (the concentration (µg/ml) of test substance which inhibit 50% of stimulated uptake of ⁴⁵Ca (uptake in depolarized samples corrected for basal uptake in nondepolarized samples )). The IC₅₀ value is estimated from dose response curves.

| SMILES | IC₅₀ [µg/mL] |
| --- | --- |
| Cl.c1ccc(C(CCN2CCOCC2)Oc2ccc3c(c2)CCC3)cc1 (stereo not drawn) [Compound 2, 4-(3-(5-Indanyloxy)-3-phenylpropyl)morpholine, hydrochloride] | 16 |
| FC(F)(F)c1ccc(OC(CCN2CCOCC2)c2ccccc2)cc1.O=C(O)C(=O)O (stereo not drawn) [Compound 3, 4-(3-Phenyl-3-(4-trifluoromethylphenoxy)propyl)morpholine, oxalate] | 17 |
| CN1CCN(CCC(Oc2ccc(C(F)(F)F)cc2)c2ccccc2)CC1 (stereo not drawn) [Compound 5, 1-(3-Phenyl-3-(4-trifluoromethylphenoxy)propyl)-4-methyl piperazine, oxalate] | 7.5 |
| CN(C)CCC(Oc1cccc(C(F)(F)F)c1)c1ccc([N+](=O)[O-])cc1.Cl (stereo not drawn) [Compound 15, N,N-dimethyl-3-(4-nitrophenyl)-3-(3-trifluoromethylphenoxy)propanamine, hydrochloride] | 6.1 |
| CN(C)CCC(Oc1ccc2c(c1)CCCC2)c1ccc([N+](=O)[O-])cc1.Cl (stereo not drawn) [Compound 17, N,N-dimethyl-3-(4-nitrophenyl)-3-(5,6,7,8-tetrahydro-2-naphthoxy)propanamine, hydrochloride] | 4.9 |
| FC(F)(F)c1ccc(OC2c3ccccc3CC2CN2CCCCC2)cc1 (stereo not drawn) [Compound 20, trans-1-(1-(4-Trifluoromethylphenoxy)indan-2-yl)methyl piperidine, hydrochloride] | 8.0 |
| CC(=O)Nc1ccc(C(CCN2CCCCC2)Oc2ccc(C(F)(F)F)cc2)cc1.O=C(O)C(=O)O (stereo not drawn) [Compound 23, 1-(3-(4-Acetamidophenyl)-3-(4-trifluoromethylphenoxy)propyl)piperidine, oxalate] | 4.0 |
| CC(=O)Nc1cccc(C(CCN2CCCCC2)Oc2ccc(C(F)(F)F)cc2)c1.O=C(O)C(=O)O (stereo not drawn) [Compound 24, 1-(3-(3-Acetamidophenyl)-3-(4-trifluoromethylphenoxy)propyl)piperidine, oxalate] | 5.3 |
| N#Cc1ccc(C(CCN2CCCCC2)Oc2ccc(C(F)(F)F)cc2)cc1.O=C(O)C(=O)O (stereo not drawn) [Compound 25, 1-(3-(4-Cyanophenyl)-3-(4-trifluoromethylphenoxy)propyl)piperidine, oxalate] | 2.2 |
